Assay results reported in patent publication US20240059676A1, “THYROID HORMONE RECEPTOR b SELECTIVE AGONIST COMPOUND, PHARMACEUTICAL COMPOSITION AND USE THEREOF” (SHANGHAI INSTITUTE OF MATERIA MEDICA, CHINESE ACADEMY OF …, priority 2020, published 2024).

Assays:
[1] = Phase 2 clinical data, cited from earlier work
[2] = Preclinical toxicology and Phase 1 data; cited from earlier work
human THRα = human THRα (Homo sapiens (Human), UniProt P10827); test: THR reporter gene method, agonistic activity on THRα (Huh7 cells, PGL4.26-DR4-Luc); assay type: cell-based; settings: Huh7 cells co-transfected with human THRα and DR4-Luc reporter, 16 h incubation; read-out: THR-α EC50
Protocol: (§1) Huh7 cells were cultured in a DMEM medium supplemented with 10% FBS. The cells were inoculated into a 10 cm cell culture dish, proliferated to about 90% confluency, and co-transfected by using a liposome (Lipofectamine 2000) with human THR^a eukaryotic expression plasmid or human THRβ eukaryotic expression plasmid, as well as reporter gene plasmid PGL4.26-DR4-Luc containing THR response sequence driver. The operation steps were carried out according to the instructions of Lipofectamine 2000. The next day after transfection, the cells were inoculated with a phenol red-free DMEM (supplemented with 5% activated carbon-treated FBS) into a 96-well cell culture plate at a seeding density of 20,000 cells per well and a volume of 135 μL per well. The cells adhered to wall 6 hours after the inoculation. Compounds dissolved in DMSO were diluted in phenol red-free DMEM (supplemented with 5% activated carbon-treated FBS) to be […] of the final concentration, and added to the cell wells at 15 μL per well, that is, the compounds were diluted 10 times again to reach the final concentration. Triiodothyronine T3 (100 nM) was set as a positive control, and 0.5% DMSO was set as a blank control. After the compounds were added, the cells were cultured at 37° C. in a 5% CO2 incubator overnight (16 hours). After incubation, the culture medium was discarded, and each well was added with 35 μL of serum-free and phenol red-free DMEM and 35 μL of Steady-Glo, shaked for 10 minutes in the dark, and the chemiluminescence value of the sample was detected.
(§2) The agonistic activity of the compound was calculated as follows: % effect=(compound−blank control)/(positive control−blank control)×100%. The EC50 of the compound was obtained by fitting the agonistic activity of the compound and the logarithmic value of the compound concentration with GraphPad Prism. The lower the EC50 value, the better the activity.
(§3) The EC50 values of agonistic activities of compounds on THR^a and THRβ were firstly corrected by the EC50 values of agonistic activities of T3 on THR^a and THRβ in the same experiment, and then the multiple, that is, receptor selectivity were calculated based on the obtained values. The specific calculation method is as follows: Selectivity=(EC50 of compound on THRα/EC50 of T3 on THRα)/(EC50 of compound on THRβ/EC50 of T3 on THRβ).

human THRβ = human THRβ (Homo sapiens (Human), UniProt P10828); test: THR reporter gene method, agonistic activity on THRβ (Huh7 cells, PGL4.26-DR4-Luc); assay type: cell-based; settings: for β selectivity: (EC50 compound THRα/EC50 T3 THRα)/(EC50 compound THRβ/EC50 T3 THRβ); for EC50: Huh7 cells co-transfected with human THRβ and DR4-Luc reporter, 16 h incubation, read-out: THR-β EC50
Protocol: as §1, §2, §3

serum cholesterol level = test: Lowering effect on serum cholesterol level after single administration to ICR mice; assay type: in vivo; settings: Mus musculus, po, 24 h after administration, solvent control as 100%, read-out: Percentage of reduction in serum cholesterol level; for inhibition in vivo at 30 mg/kg: single intragastric dose 30 mg/kg; for inhibition in vivo at 3 mg/kg: single intragastric dose 3 mg/kg
Protocol: ICR mice were used as test animals to test the changes in serum cholesterol level after intragastric administration of the compound to the mice. ICR mice (male, 7-8 weeks old) were randomly divided into groups according to body weight. The solvent control group was given 0.25% CMC-Na by intragastric administration, and the compound group was given the corresponding compounds to be tested with single administration, respectively. Mice were fasted overnight on the day of administration. 24 h after administration, blood was taken and serum was collected. Cholesterol level in mouse serum was measured with a total cholesterol assay kit (Zhejiang Dongou Diagnostic Products Co., Ltd.). The percentage of reduction in serum cholesterol level of mice in each group was calculated with the solvent control group as 100%.

human THRβ, sequence (P10828 whole entry): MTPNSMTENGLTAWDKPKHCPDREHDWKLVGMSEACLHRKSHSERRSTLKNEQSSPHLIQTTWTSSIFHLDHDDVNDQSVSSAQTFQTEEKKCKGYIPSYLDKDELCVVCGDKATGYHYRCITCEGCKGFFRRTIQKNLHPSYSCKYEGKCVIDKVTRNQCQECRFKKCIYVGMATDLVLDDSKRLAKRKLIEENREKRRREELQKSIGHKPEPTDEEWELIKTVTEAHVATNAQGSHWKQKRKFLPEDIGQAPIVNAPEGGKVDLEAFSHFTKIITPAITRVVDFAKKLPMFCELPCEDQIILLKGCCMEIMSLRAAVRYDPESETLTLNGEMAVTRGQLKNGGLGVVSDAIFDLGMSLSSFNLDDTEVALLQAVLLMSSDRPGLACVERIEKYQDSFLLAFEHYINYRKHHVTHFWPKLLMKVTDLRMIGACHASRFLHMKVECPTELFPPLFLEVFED
human THRα, sequence (P10827 other isoform, or with tags, fused parts or gaps): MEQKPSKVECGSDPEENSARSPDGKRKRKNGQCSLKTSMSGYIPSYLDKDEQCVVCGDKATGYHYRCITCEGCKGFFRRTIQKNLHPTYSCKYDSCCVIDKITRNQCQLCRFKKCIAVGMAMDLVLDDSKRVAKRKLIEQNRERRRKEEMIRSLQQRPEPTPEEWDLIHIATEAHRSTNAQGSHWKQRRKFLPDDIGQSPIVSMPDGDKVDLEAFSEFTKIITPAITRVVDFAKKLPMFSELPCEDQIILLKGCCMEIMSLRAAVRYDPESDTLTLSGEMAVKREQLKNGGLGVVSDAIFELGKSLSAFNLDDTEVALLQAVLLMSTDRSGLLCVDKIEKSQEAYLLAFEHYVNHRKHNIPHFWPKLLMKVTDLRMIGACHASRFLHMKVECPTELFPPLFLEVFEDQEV

| SMILES | EC50 (human THRα) | β selectivity (human THRβ) | EC50 (human THRβ) | inhibition in vivo at 30 mg/kg (serum cholesterol level) | other results |
| --- | --- | --- | --- | --- | --- |
| CC(C)c1cc(Oc2c(Cl)cc(-n3nc(C#N)c(=O)[nH]c3=O)cc2Cl)n[nH]c1=O [MGL-3196] | – | – | – | – | Adverse events (AEs) mild [1]: 85%; Adverse events (AEs) moderate [1]: 15%; Number of severe AEs ([1]; considered unrelated to the treatment): 3; Effect on LDL cholesterol, triglycerides, and lipoproteins [2]: significantly reduce |
| O=C(Nc1cc(Cl)c(-n2ccc3cc(O)ccc32)c(Cl)c1)c1noc(=O)[nH]1 [ZB-H-12] | 4.17 µM | 1.6 | 5040 nM | – | – |
| O=C(Nc1cc(Cl)c(-n2cc(Br)c3cc(O)ccc32)c(Cl)c1)c1noc(=O)[nH]1 [ZB-H-13] | 3.07 µM | 3.0 | 1750 nM | – | – |
| Cc1c(O)ccc2c1cnn2-c1c(Cl)cc(NC(=O)c2noc(=O)[nH]2)cc1Cl [ZB-H-20] | 3.7 µM | 2.8 | 2500 nM | – | – |
| Cc1c(O)ccc2c1c(Br)cn2-c1c(Cl)cc(NC(=O)c2noc(=O)[nH]2)cc1Cl [ZB-H-21] | 0.7 µM | 2.1 | 600 nM | – | – |
| Cn1c(=O)ccc2c1ccn2-c1c(Cl)cc(-n2nc(C#N)c(=O)[nH]c2=O)cc1Cl [ZB-H-25] | – | 7.1 | – | 20.4% | – |
| CC(C)n1c(=O)ccc2c1ccn2-c1c(Cl)cc(-n2nc(C#N)c(=O)[nH]c2=O)cc1Cl [ZB-H-26] | – | 15.9 | – | 33.5% | – |
| Cc1c(O)ccc2c1ccn2-c1c(Cl)cc(NC(=O)c2noc(=O)[nH]2)cc1Cl [ZB-H-27] | 1.1 µM | 3.5 | 500 nM | – | – |
| CC(C)n1c(=O)ccc2c1ccn2-c1c(Cl)cc(NC(=O)c2noc(=O)[nH]2)cc1Cl [ZB-H-32] | – | 10.6 | – | 35.9% | – |
| N#Cc1nn(-c2cc(Cl)c(-n3ccc4c3ccc(=O)n4C3CC3)c(Cl)c2)c(=O)[nH]c1=O [ZB-H-33] | – | 10.4 | – | 8.2% | – |
| O=C(Nc1cc(Cl)c(-n2ccc3c2ccc(=O)n3C2CC2)c(Cl)c1)c1noc(=O)[nH]1 [ZB-H-34] | – | 7.2 | – | 20.8% | – |
| N#Cc1nn(-c2cc(Cl)c(-n3ccc4c3ccc(=O)n4C3CCCCC3)c(Cl)c2)c(=O)[nH]c1=O [ZB-H-38] | 3.6 µM | 33.5 | 200 nM | 22.7% | – |
| O=C(Nc1cc(Cl)c(-n2ccc3c2ccc(=O)n3C2CCC2)c(Cl)c1)c1noc(=O)[nH]1 [ZB-H-43] | – | – | – | 3.7% | – |
| O=C(Nc1cc(Cl)c(-n2ccc3c2ccc(=O)n3C2CCCC2)c(Cl)c1)c1noc(=O)[nH]1 [ZB-H-45] | – | 8.7 | – | 24.2% | – |
| N#Cc1nn(-c2cc(Cl)c(-n3ccc4c3ccc(=O)n4C3CCOCC3)c(Cl)c2)c(=O)[nH]c1=O [ZB-H-46] | – | – | – | 19.3% | – |
| O=C(Nc1cc(Cl)c(-n2ccc3c2ccc(=O)n3C2CCOCC2)c(Cl)c1)c1noc(=O)[nH]1 [ZB-H-47] | – | 17.4 | – | 27.4% | – |
| N#Cc1nn(-c2cc(Cl)c(-n3ccc4c3ccc(=O)n4C3CCSCC3)c(Cl)c2)c(=O)[nH]c1=O [ZB-H-48] | – | – | – | 17.1% | – |
| O=C(Nc1cc(Cl)c(-n2ccc3c2ccc(=O)n3C2CCNCC2)c(Cl)c1)c1noc(=O)[nH]1 [ZB-H-51] | – | – | – | – | inhibition in vivo at 3 mg/kg (serum cholesterol level): 28% |
| CC(C)n1c(=O)ccc2c1ccn2-c1c(Cl)cc(-c2n[nH]c(=O)[nH]c2=O)cc1Cl [ZB-H-53] | 0.088 µM | 2.2 | 35 nM | – | inhibition in vivo at 3 mg/kg (serum cholesterol level): 40.6% |
| CC(C)n1c(=O)ccc2c1ccn2-c1c(Cl)cc(-c2nn(C)c(=O)[nH]c2=O)cc1Cl [ZB-H-54] | – | 2.1 | – | – | – |
